Laboratory results reported in ChEMBL document CHEMBL1201862, “PubChem BioAssay data set” (2004).
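Compound exposure: 48 hours, 5 concentrations, 96-well plates. GI50 marks 50% less growth.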 Active and inactive are the calls of the source. Rule as the data show it: active = GI50 up to about 1.1 µM and inactive = higher.

Key:
Experiment in all cases: NCI anticancer screen, dose series, 48 h
CCRF-CEM = tested on: CCRF-CEM
SF-268 = tested on: SF-268
COLO 205 = tested on: COLO 205
HL-60 = tested on: HL-60
Hs-578T = tested on: Hs-578T
MCF7 = tested on: MCF7
SK-MEL-2 = tested on: SK-MEL-2
T47D = tested on: T47D
NCI-H460 = tested on: NCI-H460
OVCAR-3 = tested on: OVCAR-3
LOX IMVI = tested on: LOX IMVI
HT-29 = tested on: HT-29
SF-539 = tested on: SF-539
IGROV-1 = tested on: IGROV-1
M14 = tested on: M14
HOP-92 = tested on: HOP-92
OVCAR-5 = tested on: OVCAR-5
UACC-257 = tested on: UACC-257
BT-549 = tested on: BT-549

Measured: GI50

O=C1OC[C@H]2[C@@H]1[C@H]1O[C@@H]2C2=C(CCC2)C1=O
inactive: CCRF-CEM > 100 µM | SF-268 > 100 µM | COLO 205 > 100 µM | HL-60 > 100 µM | Hs-578T > 100 µM | MCF7 > 100 µM | SK-MEL-2 > 100 µM | T47D > 100 µM | NCI-H460 > 100 µM | OVCAR-3 > 100 µM | LOX IMVI > 100 µM | HT-29 > 100 µM | SF-539 > 100 µM | IGROV-1 > 100 µM | M14 > 100 µM | HOP-92 > 100 µM | OVCAR-5 > 100 µM | UACC-257 > 100 µM | BT-549 > 100 µM

Cc1cc(C)n(C2OC(CO)C(O)C(O)C2O)c(=S)c1C#N (configuration not stated)
inactive: CCRF-CEM > 100 µM | SF-268 > 100 µM | COLO 205 > 100 µM | HL-60 > 100 µM | Hs-578T > 100 µM | MCF7 > 100 µM | SK-MEL-2 > 100 µM | T47D > 100 µM | NCI-H460 > 100 µM | OVCAR-3 > 100 µM | LOX IMVI > 100 µM | HT-29 > 100 µM | SF-539 > 100 µM | IGROV-1 > 100 µM | M14 > 100 µM | HOP-92 > 100 µM | OVCAR-5 > 100 µM | UACC-257 > 100 µM | BT-549 > 100 µM

CCN1C[C@]2(C)CC[C@H](OC)C34C5C[C@@H]6[C@@H](OC)C[C@@](OC)(C5[C@H]6OCc5ccccc5)C(C13)[C@H](OC(C)=O)[C@@H]42 (some centres not stated)
inactive: CCRF-CEM > 100 µM | SF-268 > 100 µM | COLO 205 75.2 µM | HL-60 6.95 µM | Hs-578T > 100 µM | MCF7 > 100 µM | SK-MEL-2 > 100 µM | T47D > 100 µM | NCI-H460 59.8 µM | OVCAR-3 64.3 µM | LOX IMVI > 100 µM | HT-29 > 100 µM | SF-539 > 100 µM | IGROV-1 > 100 µM | M14 97.1 µM | HOP-92 38.6 µM | OVCAR-5 > 100 µM | UACC-257 45.8 µM | BT-549 > 100 µM

CCCCCCCCCCCCOCCCCCCCCC/C=C/c1ccc2c(c1)OCCOCCOCCOCCO2
inactive: CCRF-CEM 39.5 µM | SF-268 22.8 µM | COLO 205 18.9 µM | HL-60 28.8 µM | Hs-578T 16.4 µM | MCF7 16.3 µM | SK-MEL-2 15.8 µM | T47D 24.9 µM | NCI-H460 18.4 µM | OVCAR-3 21.1 µM | LOX IMVI 19.3 µM | HT-29 20.7 µM | SF-539 17.4 µM | IGROV-1 21.3 µM | M14 25.4 µM | HOP-92 12.2 µM | OVCAR-5 31 µM | UACC-257 27 µM | BT-549 23.4 µM

COC(=O)C(=O)C(C(=O)C(=O)Nc1ccc(C)c(C)c1)c1nc2ccc([N+](=O)[O-])cc2nc1O (configuration not stated)
inactive: CCRF-CEM > 100 µM | SF-268 > 100 µM | HL-60 > 100 µM | Hs-578T > 100 µM | MCF7 > 100 µM | SK-MEL-2 > 100 µM | T47D > 100 µM | NCI-H460 > 100 µM | OVCAR-3 > 100 µM | LOX IMVI > 100 µM | HT-29 > 100 µM | SF-539 > 100 µM | IGROV-1 > 100 µM | M14 > 100 µM | HOP-92 > 100 µM | OVCAR-5 > 100 µM | UACC-257 > 100 µM | BT-549 > 100 µM

O=C1CC2OCC=C3CN4CCC5(C(=O)O)C(N1)C2C3CC45 (configuration not stated)
inactive: CCRF-CEM > 100 µM | SF-268 > 100 µM | COLO 205 > 100 µM | HL-60 > 100 µM | Hs-578T > 100 µM | MCF7 > 100 µM | SK-MEL-2 > 100 µM | T47D > 100 µM | NCI-H460 > 100 µM | OVCAR-3 > 100 µM | LOX IMVI > 100 µM | HT-29 > 100 µM | SF-539 > 100 µM | IGROV-1 > 100 µM | M14 > 100 µM | HOP-92 > 100 µM | OVCAR-5 > 100 µM | UACC-257 > 100 µM | BT-549 > 100 µM

CC1=C(CCC(C)CO)O[C@H]2C[C@H]3[C@@H]4CC[C@H]5C[C@@H](O)CC[C@]5(C)[C@H]4CC(=O)[C@]3(C)[C@@H]12 (some centres not stated)
inactive: CCRF-CEM 4.89 µM | SF-268 19.1 µM | COLO 205 8.97 µM | HL-60 2.94 µM | Hs-578T 17.1 µM | MCF7 23.6 µM | SK-MEL-2 11.7 µM | T47D 7.03 µM | NCI-H460 6.87 µM | OVCAR-3 4.94 µM | LOX IMVI 12.7 µM | HT-29 13.7 µM | SF-539 19.2 µM | IGROV-1 12.6 µM | M14 10.6 µM | HOP-92 23.9 µM | OVCAR-5 27.4 µM | UACC-257 14.8 µM | BT-549 16 µM
